For data set [1], the target named is fibroblast tissue transglutaminase (Homo sapiens, UniProt P21980). To be noted: in vitro and in vivo, topical, compared to controls; cited from earlier work.
The subject of data set [2] is epidermis of eroded skin. To be noted: topical; animals and human epidermis; cited from earlier work.
A short description of data set [3]: Solubility of ingredients in water noted during manufacturing. It is filed as physicochemical. Conditions: noted by Applicant during manufacturing.
From the text: (§1) As such, a first heating step (to about 40 degrees Celsius) while stirring, together with the sequential addition of Allantoin followed by HPMC allowed to improve the manufacturing procedure. Propanediol was also shown to help solubilization of active ingredients in the mixture. […] Once applied on the skin, the alcohol rapidly evaporates and promotes adherence of the film forming agent (e.g., PVP) on the skin. The presence of alcohol also promotes evaporation of water. Finally, because the presence of sodium salt (saline) could interfere with active ingredients in the formulation, it is preferentially added at the end of the process.
as §1, with “the PVP (which forms a film)” for “the film forming agent (e.g., PVP)”, “also promoted” for “also promotes”, “it was” for “it is”, “process. […]” for “process.”

fibroblast tissue transglutaminase, sequence (P21980 whole entry): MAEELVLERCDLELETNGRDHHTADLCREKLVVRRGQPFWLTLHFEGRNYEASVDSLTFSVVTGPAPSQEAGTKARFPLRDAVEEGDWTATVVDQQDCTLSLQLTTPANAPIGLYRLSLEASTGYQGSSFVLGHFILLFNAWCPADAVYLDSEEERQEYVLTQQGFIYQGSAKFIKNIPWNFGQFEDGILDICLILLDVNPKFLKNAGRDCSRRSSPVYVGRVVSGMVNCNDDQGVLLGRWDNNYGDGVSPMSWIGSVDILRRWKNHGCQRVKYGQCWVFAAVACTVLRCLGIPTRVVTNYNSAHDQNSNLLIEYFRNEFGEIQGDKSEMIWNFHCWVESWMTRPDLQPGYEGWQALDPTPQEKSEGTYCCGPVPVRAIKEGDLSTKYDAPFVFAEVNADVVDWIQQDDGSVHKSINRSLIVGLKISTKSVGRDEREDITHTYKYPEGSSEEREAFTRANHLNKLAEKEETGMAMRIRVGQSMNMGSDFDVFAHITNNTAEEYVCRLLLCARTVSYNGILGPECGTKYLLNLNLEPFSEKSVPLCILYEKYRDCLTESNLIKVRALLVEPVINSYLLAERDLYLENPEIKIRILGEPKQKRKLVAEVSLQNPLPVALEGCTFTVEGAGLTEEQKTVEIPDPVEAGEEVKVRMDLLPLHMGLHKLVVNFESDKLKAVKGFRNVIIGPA

As for `NCCCCN` [putrescine, 1,4-diaminobutane], in data set [1], the collagen cross-linking entry is “reduce collagen cross-linking in vitro and in vivo”. For the same compound, the “effect on the epidermis of eroded skin (barrier function, thickness of the stratum lucidum)” value in data set [2] is “increasing its barrier function as well as the thickness of the stratum lucidum”. Take Alpha Bisabolol: the solubility in water entry in data set [3] was “not to be very soluble in water”.

For `NC(=O)NC1NC(=O)NC1=O` (stereo not shown) [Allantoin], in data set [3], the solubility in water result was “not very soluble in water”.

Values taken from patent US20240398728A1, “STERILE TOPICAL SALINE PUTRESCINE FORMULATION AND USES THEREOF” (VIVIER CANADA INC., priority 2018, published 2024).
